According to ChEMBL document CHEMBL1208726, “Synthesis and anti-inflammatory activity of some 3-(4,6-disubtituted-2-thioxo-1,2,3,4-tetrahydropyrimidin-5-yl) propanoic acid derivatives” (2010):

Assays:
Type in all cases: functional
Rattus norvegicus [1] = assay: Antiinflammatory activity in Albino rat assessed as inhibition of carrageenan-induced paw volume at 20 mg/kg, po administered 1 hr before carrageenan challenge measured after 3 hrs
Rattus norvegicus [2] = assay: Antiinflammatory activity in Albino rat assessed as reduction of carrageenan-induced paw volume at 20 mg/kg, po administered 1 hr before carrageenan challenge measured after 4 hrs (reference value: 1.44 +/- 0.046 ml)
Rattus norvegicus [3] = assay: Antiinflammatory activity in Albino rat assessed as inhibition of carrageenan-induced paw volume at 20 mg/kg, po administered 1 hr before carrageenan challenge measured after 2 hrs
Rattus norvegicus [4] = assay: Antiinflammatory activity in Albino rat assessed as reduction of carrageenan-induced paw volume at 20 mg/kg, po administered 1 hr before carrageenan challenge measured after 24 hrs (reference value: 1.39 +/- 0.053 ml)
Rattus norvegicus [5] = assay: Antiinflammatory activity in Albino rat assessed as reduction of carrageenan-induced paw volume at 20 mg/kg, po administered 1 hr before carrageenan challenge measured after 2 hrs (reference value: 1.905 +/- 0.046 ml)
Rattus norvegicus [6] = assay: Antiinflammatory activity in Albino rat assessed as inhibition of carrageenan-induced paw volume at 20 mg/kg, po administered 1 hr before carrageenan challenge measured after 1 hr
Rattus norvegicus [7] = assay: Antiinflammatory activity in Albino rat assessed as reduction of carrageenan-induced paw volume at 20 mg/kg, po administered 1 hr before carrageenan challenge measured after 3 hrs (reference value: 1.63 +/- 0.059 ml)
Rattus norvegicus [8] = assay: Antiinflammatory activity in Albino rat assessed as reduction of carrageenan-induced paw volume at 20 mg/kg, po administered 1 hr before carrageenan challenge measured after 1 hr (reference value: 1.925 +/- 0.1011 ml)
Rattus norvegicus [9] = assay: Antiinflammatory activity in Albino rat assessed as inhibition of carrageenan-induced paw volume at 20 mg/kg, po administered 1 hr before carrageenan challenge measured after 4 hrs
Rattus norvegicus [10] = assay: Antiinflammatory activity in Albino rat assessed as inhibition of carrageenan-induced paw volume at 20 mg/kg, po administered 1 hr before carrageenan challenge measured after 24 hrs

SMILES | inhibition in vivo at 20 mg/kg (Rattus norvegicus [1]) | Activity (Rattus norvegicus [2]) | inhibition in vivo at 20 mg/kg (Rattus norvegicus [3]) | Activity (Rattus norvegicus [4]) | Activity (Rattus norvegicus [5]) | inhibition in vivo at 20 mg/kg (Rattus norvegicus [6]) | Activity (Rattus norvegicus [7]) | Activity (Rattus norvegicus [8]) | inhibition in vivo at 20 mg/kg (Rattus norvegicus [9]) | inhibition in vivo at 20 mg/kg (Rattus norvegicus [10])
COc1cc(C2NC(=S)NC(c3ccc(C)cc3)=C2CCC(=O)O)cc(OC)c1OC (stereo not given) | 15.9% | 1.44 mL | 14.2% | 1.54 mL | 1.63 mL | 20.5% | 1.37 mL | 1.53 mL |  | 
COc1cc(C2NC(=S)NC(c3ccc(C)cc3)=C2CCC(=O)O)ccc1O (stereo not given) |  | 1.69 mL | 1.57% | 1.55 mL | 1.87 mL |  | 1.79 mL | 1.96 mL |  | 
O=C(O)CCC1=C(c2ccc(Cl)cc2)NC(=S)NC1c1ccco1 (stereo not given) | 5.52% | 1.47 mL | 17.9% | 1.39 mL | 1.56 mL | 30.4% | 1.54 mL | 1.34 mL |  | 
O=C(O)CCC1=C(c2ccc(Cl)cc2)NC(=S)NC1c1ccccc1O (stereo not given) | 1.22% | 1.58 mL | 14.7% | 1.46 mL | 1.62 mL | 9.61% | 1.61 mL | 1.74 mL |  | 
O=C(O)CCC1=C(c2ccc(F)cc2)NC(=S)NC1c1ccco1 (stereo not given) | 3.68% | 1.56 mL | 14.2% | 1.48 mL | 1.63 mL | 24.7% | 1.57 mL | 1.45 mL |  | 
O=C(O)Cc1ccccc1Nc1c(Cl)cccc1Cl [DICLOFENAC] | 20.9% | 1.34 mL | 17.9% | 1.51 mL | 1.56 mL | 21.6% | 1.29 mL | 1.51 mL | 6.94% | 
Cc1ccc(C2=C(CCC(=O)O)C(c3ccco3)NC(=S)N2)cc1 (stereo not given) | 10.4% | 1.38 mL | 28.1% | 1.19 mL | 1.37 mL | 33% | 1.46 mL | 1.29 mL | 4.16% | 14.4%
O=C(O)CCC1=C(c2ccccc2)NC(=S)NC1c1ccccc1O (stereo not given) | 12.9% | 1.49 mL | 28.6% | 1.36 mL | 1.36 mL | 33% | 1.42 mL | 1.29 mL |  | 2.15%
COc1ccc(C2=C(CCC(=O)O)C(c3ccccc3O)NC(=S)N2)cc1 (stereo not given) | 20.9% | 1.33 mL | 27% | 1.2 mL | 1.39 mL | 28.3% | 1.29 mL | 1.38 mL | 7.63% | 13.7%
O=C(O)CCC1=C(c2ccc(Cl)cc2)NC(=S)NC1c1ccccn1 (stereo not given) | 5.52% | 1.6 mL | 21.8% | 1.3 mL | 1.49 mL | 22.1% | 1.54 mL | 1.5 mL |  | 6.47%
O=C(O)CCC1=C(c2ccccc2)NC(=S)NC1c1ccco1 (stereo not given) | 9.81% | 1.36 mL | 21.8% | 1.16 mL | 1.49 mL | 28.8% | 1.47 mL | 1.37 mL | 5.55% | 16.5%
